Experiment: Inhibition of RNA-dependent RNA polymerase in ZIKV SL0612 infected in African green monkey Vero cells assessed as reduction in virus-induced cytopathic effect measured after 96 hrs post-infection by MTS assay

SMILES	EC50 [µM]
Nc1ncnc2c1ncn2[C@@H]1C[C@H](CO)[C@@H](O)[C@H]1O [3-(6-Amino-purin-9-yl)-5-hydroxymethyl-cyclopentane-1,2-diol]	0.64
Nc1ncnc2c1ncn2[C@H]1[C@H](O)[C@H](O)[C@@H](CO)C1(F)F	0.26
CC(C)OC(=O)[C@H](C)N[P@](=O)(OC[C@@H]1[C@@H](O)[C@@H](O)[C@H](n2cnc3c(N)ncnc32)C1(F)F)Oc1ccccc1	1.75
O=c1ccn([C@H]2[C@H](O)[C@H](O)[C@@H](CO)C2(F)F)c(=O)[nH]1	> 100
CC(C)OC(=O)[C@H](C)N[P@](=O)(OC[C@@H]1[C@@H](O)[C@@H](O)[C@H](n2ccc(=O)[nH]c2=O)[C@@H]1F)Oc1ccccc1	> 100
CC(C)OC(=O)[C@H](C)N[P@](=O)(OC[C@@H]1[C@@H](O)[C@@H](O)[C@H](n2ccc(=O)[nH]c2=O)C1(F)F)Oc1ccccc1	> 100

Next, values leading:

EC50 [µM]	SMILES
> 100	Nc1ccn([C@H]2[C@H](O)[C@H](O)[C@@H](CO)C2(F)F)c(=O)n1
> 100	O=c1ccn([C@H]2[C@H](O)[C@H](O)[C@@H](CO)[C@@H]2F)c(=O)[nH]1
> 100	CNc1ncnc2c1ncn2[C@H]1[C@H](O)[C@H](O)[C@@H](CO)[C@H]1F
> 100	Nc1ccn([C@H]2[C@H](O)[C@H](O)[C@@H](CO)[C@H]2F)c(=O)n1
> 100	CNc1ncnc2c1ncn2[C@H]1[C@H](O)[C@H](O)[C@@H](CO)C1(F)F
> 100	O=c1ccn([C@H]2[C@H](O)[C@H](O)[C@@H](CO)[C@H]2F)c(=O)[nH]1

From BindingDB's records for doi:10.1021/acs.jmedchem.9b00781 (Seoul National University, 2019)
